Measurements reported in EP4737449A1 (Changchun Genescience Pharmaceutical Co., Ltd., priority 2023, dated 2025).
Counter-ions that a name gives are not always drawn. Like-named read-outs stand apart in the source and are kept apart here.

Legend:
NUGC-3 cells = experiment: NUGC-3 cell proliferation assay (CTG, 7 days); type: cell-based, human; conditions: Homo sapiens, NUGC-3, 168 h
Procedure: The cells were cultured in strict accordance with ATCC requirements.
Cell culture medium: 1640 culture medium, 10% serum, 1% penicillin + streptomycin.
Culture conditions: 37°C, 95% air, 5% carbon dioxide.
Compounds (20 mM) were subjected to gradient dilution in DMSO: 10 gradients, 3-fold dilution, duplicate wells.
Positive and negative controls (100% dimethyl sulfoxide) were prepared.
The compounds that were gradient diluted with DMSO and positive and negative controls (1st and 2nd step), each 75 nL, were transferred to 384-well cell culture plates by Echo550.
The cells were washed twice with PBS, digested with trypsin, and centrifuged for cell counting.
The experiment can only be carried out when the cell viability is above 90%.
The cells were plated into 384-well cell culture plates, with 200 (NUGC-3) cells and 30 µL of culture medium per well.
The 384-well microplate was placed in a cell culture incubator for 7 days.
30 µL of CTG detection reagent was added to the 384-well microplate.
The 384-well microplate was incubated for 30 min at 37°C, 5% carbon dioxide in the dark.
The reading was performed by a multi-functional microplate reader Envision.
% Inhibition is calculated as follows: % Inhibition = 100−(Signalcmpd−SignalAve_BL)/(SignalAve_VC−SignalAve_BL)*100 [formula] • Signalcmpd: Average signal of the compound in the cell plate • Signalave_vc: Average signal of the negative control in the cell plate • Signalave_BL: Average signal of the blank wells in the cell plate
IC50 was calculated by fitting % inhibition and compound concentration logarithmically to a nonlinear regression (dose response - variable slope) using Graphpad 8.0. Table 2 IC50 of selected compounds in NUGC-3 cell proliferation assay

p53-Y220C mutant protein = target: T1, p53-Y220C mutant protein (Homo sapiens, UniProt P04637, Y220C); experiment: In vitro DNA binding activity assay (TR-FRET); type: biochemical; conditions: concentration required to increase the binding activity of protein to DNA by 50%
T1 construct: The recombinant Y220C p53 DBD protein with his-tag
Procedure, shortened: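 His-tagged Y220C p53 DBD was equilibrated with compound 60 min at room temperature, then biotin-DNA, anti-6His-Eu and streptavidin-d2 were added and incubated overnight in the dark. TR-FRET 665/615 nm ratio, background-corrected, was expressed as % activity versus vehicle; SC150 is the concentration raising DNA binding by 50%.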

[1] = NUGC-3 cell proliferation, 7 days, CTG, read-out: IC50

SMILES | SC150 (p53-Y220C mutant protein) [nM] | IC50 (NUGC-3 cells; [1]) [µM] | IC50 (NUGC-3 cells) [µM]
CN1CC[C@@H](Nc2cccc3c(CC(F)(F)F)c(C#CCNC(=O)c4cc5n(c4)CCC5)nn23)[C@@H](F)C1 [Compound 260, N-[3-(7-{[(3S,4R)-3-fluoro-1-methylpiperidin-4-yl]amino}-3-(2,2,2-trifluoroethyl)pyrazolo[1,5-a]pyridin-2-yl)prop-2-yn-1-yl]-2,3-dihydro-1H-pyrrolizine-6-carboxamide] | 18 | 1.19 | 
CN1CC[C@@H](Nc2cccc3c(CC(F)(F)F)c(C#CCNC(=O)c4ccn(C5CC5)c4)nn23)[C@@H](F)C1 [Compound 280, 1-cycloproyl-N-[3-(7-{[(3S,4R)-3-fluoro-1-methylpiperidin-4-yl]amino}-3-(2,2,2-ethyl trifluoroacetate)pyrazolo[1,5-a]pyridin-2-yl)-prop-2-yn-1-yl]-1H-pyrrole-3-carboxamide] | 16 |  | 1.06
CN1CC[C@@H](Nc2cccc3c(CC(F)(F)F)c(C#CCNC(=O)c4cnn(CC5CCC5)c4N)nn23)[C@@H](F)C1 [Compound 284, 5-amino-1-(cyclobutylmethyl)-N-[3-(7-{[(3S,4R)-3-fluoro-1-methylpiperidin-4-yl]amino}-3-(2,2,2-trifluoroethyl)pyrazolo[1,5-a]pyridin-2-yl)prop-2-yn-1-yl]-1H-pyrazole-4-carboxamide] | 12 | 0.36 | 
CN1CC[C@@H](Nc2cccc3c(CC(F)(F)F)c(C#CCNC(=O)c4cnn(C(C)(C)C5CC5)c4N)nn23)[C@@H](F)C1 [Compound 290, 5-amino-1-(2-cyclopropylprop-2-yl)-N-[3-(7-{[(3S,4R)-3-fluoro-1-methylpiperidin-4-yl]amino}-3-(2,2,2-trifluoroethyl)pyrazolo[1,5-a]pyridin-2-yl)prop-2-yn-1-yl]-1H-pyrazole-4-carboxamide] | 11 | 0.355 | 
CC(C1CC1)n1ncc(C(=O)NCC#Cc2nn3c(N[C@@H]4CCN(C)C[C@@H]4F)cccc3c2CC(F)(F)F)c1N (stereo partly drawn) [Compound 291, 5-amino-1-(1-cyclopropylethyl)-N-[3-(7-{[(3S,4R)-3-fluoro-1-methylpiperidin-4-yl]amino}-3-(2,2,2-trifluoroethyl)pyrazolo[1,5-a]pyridin-2-yl)prop-2-yn-1-yl]-1H-pyrazole-4-carboxamide] | 7 | 0.249 | 
CN1CC[C@@H](Nc2cccc3c(CC(F)(F)F)c(C#CCNC(=O)c4cnn(CC5CC5)c4N)nn23)[C@@H](F)C1 [Compound 292] | 8 |  | 0.214
CN1CC[C@@H](Nc2cccc3c(CC(F)(F)F)c(C#CCNC(=O)c4ccn5c4COCC5)nn23)[C@@H](F)C1 [Compound 301, N-[3-(7-{[(3S,4R)-3-fluoro-1-methylpiperidin-4-yl]amino}-3-(2,2,2-trifluoroethyl)pyrazolo[1,5-a]pyridin-2-yl)prop-2-yn-1-yl]-3,4-dihydro-1H-pyrrolo[2,1-c][1,4]oxazine-8-carboxamide] | 27 | 1.19 | 
CN1CC[C@@H](Nc2cccc3c(CC(F)(F)F)c(C#CCNC(=O)c4cnn(C5CC5)c4N)nn23)[C@@H](F)C1 [Compound 305, 5-amino-N-[3-(7-{[(3S,4R)-3-fluoro-1-methylpiperidin-4-yl]amino}-3-(2,2,2-trifluoroethyl)pyrazolo[1,5-a]pyridin-2-yl)prop-2-yn-1-yl]-1-(cyclopropyl)-1H-pyrazole-4-carboxamide] | 7 | 0.193 | 
CC(C)n1ncc(C(=O)NCC#Cc2nn3c(N[C@@H]4CCN(C)C[C@@H]4F)cccc3c2CC(F)(F)F)c1N [Compound 306, 5-amino-N-[3-(7-{[(3S,4R)-3-fluoro-1-methylpiperidin-4-yl]amino}-3-(2,2,2-trifluoroethyl)pyrazolo[1,5-a]pyridin-2-yl)prop-2-yn-1-yl]-1-isopropyl-1H-pyrazole-4-carboxamide] | 6 | 0.142 | 
[2H]C([2H])([2H])N1CC[C@@H](Nc2cccc3c(CC(F)(F)F)c(C#CCNC(=O)c4cnn(C(C)(C)C)c4N)nn23)[C@@H](F)C1 [Compound 311, 5-amino-1-(tert-butyl)-N-[3-(7-{[(3S,4R)-3-fluoro-1-(methyl-d3)piperidin-4-yl]amino}-3-(2,2,2-trifluoroethyl)pyrazolo[1,5-a]pyridin-2-yl)prop-2-yn-1-yl]-1H-pyrazole-4-carboxamide] | 4 | 0.173 | 
CN1CC[C@@H](Nc2cccc3c(CC(F)(F)F)c(C#CCNC(=O)c4ccc(N5CCC5)nc4)nn23)[C@@H](F)C1 [Compound 314, 6-(azetidin-1-yl)-N-[3-(7-{[(3S,4R)-3-fluoro-1-methylpiperidin-4-yl]amino}-3-(2,2,2-trifluoroethyl)pyrazolo[1,5-a]pyridin-2-yl)prop-2-yn-1-yl]-3-nicotinamide] | 35 | 1.2 | 
CN1CC[C@@H](Nc2cccc3c(CC(F)(F)F)c(C#CCNC(=O)c4ccc(N5CCCC5)nc4)nn23)[C@@H](F)C1 [Compound 315, N-[3-(7-{[(3S,4R)-3-fluoro-1-methylpiperidin-4-yl]amino}-3-(2,2,2-trifluoroethyl)pyrazolo[1,5-a]pyridin-2-yl)prop-2-yn-1-yl]-6-(pyrrolidin-1-yl)nicotinamide] | 52 | 1.24 | 

The next lines start with results.

SC150 (p53-Y220C mutant protein) [nM] | SMILES | IC50 (NUGC-3 cells; [1]) [µM] | IC50 (NUGC-3 cells) [µM]
22 | CN1CC[C@@H](Nc2cccc3c(CC(F)(F)F)c(C#CCNC(=O)c4ccc(C(C)(C)O)nc4)nn23)[C@@H](F)C1 [Compound 236, N-[3-(7-{[(3S,4R)-3-fluoro-1-methylpiperidin-4-yl]amino}-3-(2,2,2-trifluoroethyl)pyrazolo[1,5-a]pyridin-2-yl)prop-2-yn-1-yl]-6-(2-hydroxyprop-2-yl)pyridine-3-carboxamide] | 1.28 | 
13 | CN1CC[C@@H](Nc2cccc3c(CC(F)(F)F)c(C#CCNC(=O)c4ccn(C)c4)nn23)[C@@H](F)C1 [Compound 270, N-[3-(7-{[(3S,4R)-3-fluoro-1-methylpiperidin-4-yl]amino}-3-(2,2,2-trifluoroethyl)pyrazolo[1,5-a]pyridin-2-yl)prop-2-yn-1-yl]-1-methyl-1H-pyrrole-3-carboxamide] | 0.818 | 
23 | CN1CC[C@@H](Nc2cccc3c(CC(F)(F)F)c(C#CCNC(=O)c4cc(C#N)n(C)c4)nn23)[C@@H](F)C1 [Compound 271, 5-cyano-N-[3-(7-{[(3S,4R)-3-fluoro-1-methylpiperidin-4-yl]amino}-3-(2,2,2-trifluoroethyl)pyrazolo[1,5-a]pyridin-2-yl)prop-2-yn-1-yl]-1-methyl-1H-pyrrole-3-carboxamide] | 0.936 | 
13 | Cc1cc(C(=O)NCC#Cc2nn3c(N[C@@H]4CCN(C)C[C@@H]4F)cccc3c2CC(F)(F)F)c[nH]1 [Compound 272, N-[3-(7-{[(3S,4R)-3-fluoro-1-methylpiperidin-4-yl]amino}-3-(2,2,2-trifluoroethyl)pyrazolo[1,5-a]pyridin-2-yl)prop-2-yn-1-yl]-5-methyl-1H-pyrrole-3-carboxamide] | 1.23 | 
21 | CN1CC[C@@H](Nc2cccc3c(CC(F)(F)F)c(C#CCNC(=O)c4ccc(N)nc4)nn23)[C@@H](F)C1 [Compound 296, 6-amino-N-[3-(7-{[(3S,4R)-3-fluoro-1-methylpiperidin-4-yl]amino}-3-(2,2,2-trifluoroethyl)pyrazolo[1,5-a]pyridin-2-yl)prop-2-yn-1-yl]nicotinamide] | 1.23 | 
12 | COC(C)(C)Cn1ccc(C(=O)NCC#Cc2nn3c(N[C@@H]4CCN(C)C[C@@H]4F)cccc3c2CC(F)(F)F)c1 [Compound 300, N-[3-(7-{[(3S,4R)-3-fluoro-1-methylpiperidin-4-yl]amino}-3-(2,2,2-trifluoroethyl)pyrazolo[1,5-a]pyridin-2-yl)prop-2-yn-1-yl]-1-(2-methoxy-2-methylpropyl)-1H-pyrrole-3-carboxamide] | 0.411 | 
19 | CN1CC[C@@H](Nc2cccc3c(CC(F)(F)F)c(C#CCNC(=O)c4cc(F)n(C)c4)nn23)[C@@H](F)C1 [Compound 312, 5-fluoro-N-[3-(7-{[(3S,4R)-3-fluoro-1-methylpiperidin-4-yl]amino}-3-(2,2,2-trifluoroethyl)pyrazolo[1,5-a]pyridin-2-yl)prop-2-yn-1-yl]-1-methyl-1H-pyrrole-3-carboxamide] | 1.46 | 
28 | CN1CC[C@@H](Nc2cccc3c(CC(F)(F)F)c(C#CCNC(=O)c4ccn(C5(C)CC5)c4)nn23)[C@@H](F)C1 [Compound 313, N-[3-(7-{[(3S,4R)-3-fluoro-1-methylpiperidin-4-yl]amino}-3-(2,2,2-trifluoroethyl)pyrazolo[1,5-a]pyridin-2-yl)prop-2-yn-1-yl]-1-(1-methylcyclopropyl)-1H-pyrrole-3-carboxamide] | 1.37 | 
